Assay results: article PMC3660081 (Annals of Oncology, 2013)
Entries after “also recorded” stand apart in the source; their conditions may differ.

How the values were obtained:
[1] = Drug-related treatment-emergent adverse events; format: in vivo, human; details: for Administration interrupted (omitted) / Dose reduction due to adverse events: % of administered cycles
[2] = Pharmacokinetics of chemotherapy components before; details: for Effect of regorafenib on pharmacokinetics/exposure, in words: cycle 2 versus cycle 1; for Cmax in cycle 2 versus cycle 1, in words: following regorafenib dosing
[3] = cited from earlier work
[4] = test system: colorectal cancer after progression on standard therapy; details: versus best supportive care 5.0 months; cited from earlier work
UGT1A1 = details: cited from earlier work
[5] = test system: heavily pretreated colorectal cancer; details: single-agent regorafenib; cited from earlier work
UGT1A9 = details: cited from earlier work
[6] = after versus before regorafenib dosing
[7] = Cycle 1 day 1, before regorafenib dosing
[8] = Cycle 2 day 1, after regorafenib dosing

CCc1c2c(nc3ccc(OC(=O)N4CCC(N5CCCCC5)CC4)cc13)-c1cc3c(c(=O)n1C2)COC(=O)[C@]3(O)CC [Irinotecan, irinotecan]
Administration interrupted (omitted) [1]: 5% | Dose reduction due to adverse events [1]: 12% | AUC ratio (90% CI) Cycle 2/Cycle 1 [2, 6]: 1.28 | Cmax ratio (90% CI) Cycle 2/Cycle 1 [2, 6]: 1.22 (0.80–1.85) | Effect of regorafenib on pharmacokinetics/exposure, in words [2]: increased exposure; also recorded: increased significantly | Cmax in cycle 2 versus cycle 1, in words [2]: only slightly increased | AUC ([2]; human, in vivo, geometric mean, Cycle 1 day 1, before regorafenib dosing): 10700 ng·h/mL | AUC ([2]; human, in vivo, geometric mean, Cycle 2 day 1, after regorafenib dosing): 13800 ng·h/mL | Cmax ([2]; human, in vivo, Cmax, geometric mean, Cycle 1 day 1, before regorafenib dosing): 1900 ng/mL

O=c1[nH]cc(F)c(=O)[nH]1 [5-fluorouracil]
Administration interrupted (omitted) [1]: 8% | Dose reduction due to adverse events [1]: 18% | Cmax ratio (90% CI) Cycle 2/Cycle 1 ([2]; FOLFIRI regimen): 0.92 (0.06–13.9) | t½, geometric mean ([2]; FOLFIRI regimen, Cycle 1, before regorafenib dosing): 0.2 H | AUC ratio (90% CI) Cycle 2/Cycle 1 ([2]; FOLFOX regimen): 1.06 (0.69–1.64) | Cmax ratio (90% CI) Cycle 2/Cycle 1 ([2]; FOLFOX regimen): 0.89 (0.50–1.61) | t½, geometric mean ([2]; FOLFOX regimen, Cycle 1, before regorafenib dosing): 0.4 H | t½, geometric mean ([2]; FOLFOX regimen, Cycle 2, after regorafenib dosing): 2.4 H | Effect of regorafenib on pharmacokinetics/exposure, in words [2]: no significant effect

NC(=O)c1cc(Oc2ccc(NC(=O)Nc3ccc(Cl)c(C(F)(F)F)c3)c(F)c2)cc[n+]1[O-] [M5]
Half-life [3]: 51 to 64 h

CNC(=O)c1cc(Oc2ccc(NC(=O)Nc3ccc(Cl)c(C(F)(F)F)c3)c(F)c2)cc[n+]1[O-] [M2]
Half-life [3]: 26 to 28 h

CNC(=O)c1cc(Oc2ccc(NC(=O)Nc3ccc(Cl)c(C(F)(F)F)c3)c(F)c2)ccn1 [Regorafenib]
Overall survival (OS) [4]: 6.4 months | Tolerability in combination with chemotherapy (FOLFOX or FOLFIRI), in words ([1]; regorafenib 160 mg once daily days 4–10 and 18–24): acceptable tolerability | Inhibition of UGT1A1, in words (UGT1A1): strong inhibitor | Half-life [3]: 25 h | Stable disease [5]: 19 of 27 | Inhibition of UGT1A9, in words (UGT1A9): strong inhibitor

CCc1c2c(nc3ccc(O)cc13)-c1cc3c(c(=O)n1C2)COC(=O)[C@]3(O)CC [SN-38]
AUC, geometric mean [2, 7]: 400 ng·h/mL | t½, geometric mean [2, 7]: 16.8 h | AUC, geometric mean [2, 8]: 500 ng·h/mL | t½, geometric mean [2, 8]: 19.3 h | AUC ratio (90% CI) Cycle 2/Cycle 1 [2, 6]: 1.44 | Cmax ratio (90% CI) Cycle 2/Cycle 1 [2, 6]: 0.91 (0.55–1.50) | Effect of regorafenib on pharmacokinetics/exposure, in words [2]: increased exposure; also recorded: increased significantly | Cmax in cycle 2 versus cycle 1, in words [2]: unchanged

O=C1[O][Pt]2([NH][C@@H]3CCCC[C@H]3[NH]2)[O]C1=O [Oxaliplatin, oxaliplatin]
Administration interrupted (omitted) [1]: 11% | Dose reduction due to adverse events [1]: 11% | Effect of regorafenib on pharmacokinetics/exposure, in words [2]: no significant effect
